# Active and inactive are the calls of the source. Rule as the data show it, for most assays here: actives have a measured EC50 and inactives only a lower limit.
# Key:
# [1] = target: Luciferin 4-monooxygenase (Photinus pyralis, UniProt P08659); assay: inhibition of purified Photinus pyralis luciferase – biochemical, luminescence, dose response (AID 1891)
# [2] = Luminescence Cell-Based Dose Confirmation HTS to Identify Inhibitors of Platelet Dense Granule Release. [Related pubchem assays: 1663 (Primary HTS), 1678 (Summary of Project)]; type: functional
# [3] = target: T1, Calpain-2 catalytic subunit (Sus scrofa, UniProt P43367); assay: m-calpain protease blockers, concentration series – biochemical, fluorogenic peptide substrate, dose response (AID 1420); type: functional
# T1 sequence (P43367 whole entry): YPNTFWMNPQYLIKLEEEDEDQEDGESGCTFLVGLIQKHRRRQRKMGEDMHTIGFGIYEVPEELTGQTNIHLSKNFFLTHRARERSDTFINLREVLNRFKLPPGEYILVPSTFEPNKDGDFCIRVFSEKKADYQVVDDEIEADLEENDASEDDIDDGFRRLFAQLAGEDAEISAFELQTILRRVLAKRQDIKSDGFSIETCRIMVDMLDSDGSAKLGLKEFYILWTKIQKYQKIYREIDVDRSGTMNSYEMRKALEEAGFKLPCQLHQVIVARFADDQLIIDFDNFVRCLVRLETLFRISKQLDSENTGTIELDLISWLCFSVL
# [4] = alpha-synuclein stem-loop luciferase translation blockers – H4 neuroglioma cells, luminescence, confirmation (AID 1988); type: functional, cell-based
# [5] = luciferase reporter signal suppression in cells – H4 neuroglioma cells, luminescence, dose response (AID 1990); type: functional, cell-based
# [6] = Luminescence Cell-Based Dose Response HTS to Identify Inhibitors of 5'UTR Stem-Loop Driven Prion Protein mRNA Translation in H4 Neuroglioblastoma Cells. [Related pubchem assays: 1827 (Project Summary), 1813 (Primary HTS)]; type: functional
# [7] = NIH-3T3 fibroblast cytotoxicity, dose response, cytotoxicity control, cell-based, fluorescence, Alamar Blue, secondary assay (AID 2327); type: functional;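 also: NIH-3T3 mouse fibroblasts cultured with fluconazole at 8 µg/mL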
# [8] = fluconazole-exposed Candida albicans growth modulators – fluorescence, retest, confirmation (AID 2467); type: functional, cell-based
# H9c2 = assay: cells; type: functional, cell-based; settings: Rattus norvegicus, H9c2, Myocardium;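 also: confirmatory concentration-response retest of ultra-high-throughput screening hits for modulation of myocardial damage; cell death induced by hydrogen peroxide oxidative stress; compound pretreatment for 60 min then peroxide exposure for 2 h; potency is for protecting the cells against peroxide damage rather than for killing them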
# Streptokinase A = target: T2, Streptokinase A (Streptococcus pyogenes serotype M1, UniProt P10520); assay: viability-normalized secreted streptokinase activity reduction – plasminogen activation absorbance, OD405, dose response (AID 1914); type: functional, Streptococcus pyogenes M1 GAS;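 also: secreted streptokinase activity via plasminogen activation per viability signal from cell pellet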
# T2 sequence (P10520 whole entry): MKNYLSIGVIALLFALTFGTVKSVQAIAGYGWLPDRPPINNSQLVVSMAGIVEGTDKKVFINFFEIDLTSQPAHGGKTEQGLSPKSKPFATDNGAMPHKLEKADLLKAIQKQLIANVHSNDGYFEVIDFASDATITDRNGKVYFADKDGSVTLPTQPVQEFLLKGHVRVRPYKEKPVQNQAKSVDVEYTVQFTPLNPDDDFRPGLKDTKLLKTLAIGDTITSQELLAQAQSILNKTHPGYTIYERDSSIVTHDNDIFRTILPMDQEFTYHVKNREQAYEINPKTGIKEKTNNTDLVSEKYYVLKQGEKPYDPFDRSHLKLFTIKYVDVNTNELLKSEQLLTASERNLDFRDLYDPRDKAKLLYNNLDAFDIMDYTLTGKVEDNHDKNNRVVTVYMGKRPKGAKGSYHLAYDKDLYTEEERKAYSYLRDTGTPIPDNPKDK
# [9] = tested on: Streptococcus sp. 'group A'; assay: Streptococcus pyogenes SK(-)GAS viability under kanamycin – luminescence, BacTiterGlo, confirmation, counter-screen for streptokinase expression inhibitor project, dose response (AID 1900); type: functional, organism-based
# Streptococcus = assay: GAS UMAA2166 growth inhibition – luminescence, BacTiterGlo, counter-screen for streptokinase expression inhibitor project, dose response (AID 1915); type: functional, organism-based;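 also: potency for reduction of bacterial viability or growth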
# [10] = target: T3, Corticotropin-releasing factor receptor 2/Corticotropin-releasing factor-binding protein (Homo sapiens, UniProt P24387+Q13324); assay: activators of CRF receptor 2 with binding protein – uHTS hits, confirmation (AID 602473); type: functional; settings: read-out: EC50_Mean
# T3 sequence (Q13324 whole entry): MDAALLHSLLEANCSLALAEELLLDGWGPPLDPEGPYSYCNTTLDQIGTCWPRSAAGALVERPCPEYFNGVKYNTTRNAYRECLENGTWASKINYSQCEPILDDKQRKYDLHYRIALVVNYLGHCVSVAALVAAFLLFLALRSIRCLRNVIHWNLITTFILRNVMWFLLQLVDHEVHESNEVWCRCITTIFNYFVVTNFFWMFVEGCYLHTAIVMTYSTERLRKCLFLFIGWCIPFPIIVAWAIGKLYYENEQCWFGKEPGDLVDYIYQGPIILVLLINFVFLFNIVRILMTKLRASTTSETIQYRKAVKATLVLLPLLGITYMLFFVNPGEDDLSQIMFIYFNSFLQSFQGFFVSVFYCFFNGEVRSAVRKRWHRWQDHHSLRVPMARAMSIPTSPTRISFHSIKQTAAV
# T3 sequence (P24387 whole entry): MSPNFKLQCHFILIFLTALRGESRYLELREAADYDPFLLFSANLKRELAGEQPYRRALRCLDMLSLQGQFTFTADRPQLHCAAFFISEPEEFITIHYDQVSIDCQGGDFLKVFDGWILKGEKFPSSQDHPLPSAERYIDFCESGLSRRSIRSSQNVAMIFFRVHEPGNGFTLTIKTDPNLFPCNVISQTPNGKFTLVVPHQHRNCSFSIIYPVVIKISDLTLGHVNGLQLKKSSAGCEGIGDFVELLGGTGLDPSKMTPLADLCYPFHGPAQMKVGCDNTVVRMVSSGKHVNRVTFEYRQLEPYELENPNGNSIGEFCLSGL
# Paired box protein Pax-8 = Paired box protein Pax-8 (Homo sapiens, UniProt Q06710); assay: PAX8 transcriptional activity inhibition in RMG-I – RMG-I cells, luciferase, cherry-pick, dose response (AID 687027); type: functional, cell-based;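 also: luciferase reporter driven by Pax8 target thyroperoxidase promoter measured by SteadyGlo luminescence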
# [11] = blockers of HIV-1 ZM109 envelope-driven cell-cell fusion – HeLa effector, CEM target cells, luciferase, cherry-pick, dose response (AID 652058); type: functional, cell-based;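 also: luciferase signal from HIV-1 Env mediated cell-cell fusion of effector and target cells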
# [12] = blockers of HIV-1 envelope-mediated cell-cell fusion – cherry-pick, dose response (AID 652057); type: functional, cell-based
# [13] = HIV-1 AD8 envelope cell-cell fusion blockers – cherry-pick, dose response (AID 652062); type: functional, cell-based;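 also: luciferase signal from cell-cell fusion driven by HIV-1 clade B AD8 Env; potency is for inhibitors of fusion seen as a drop in luminescence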
# Luciferin 4-monooxygenase, sequence (P08659 whole entry): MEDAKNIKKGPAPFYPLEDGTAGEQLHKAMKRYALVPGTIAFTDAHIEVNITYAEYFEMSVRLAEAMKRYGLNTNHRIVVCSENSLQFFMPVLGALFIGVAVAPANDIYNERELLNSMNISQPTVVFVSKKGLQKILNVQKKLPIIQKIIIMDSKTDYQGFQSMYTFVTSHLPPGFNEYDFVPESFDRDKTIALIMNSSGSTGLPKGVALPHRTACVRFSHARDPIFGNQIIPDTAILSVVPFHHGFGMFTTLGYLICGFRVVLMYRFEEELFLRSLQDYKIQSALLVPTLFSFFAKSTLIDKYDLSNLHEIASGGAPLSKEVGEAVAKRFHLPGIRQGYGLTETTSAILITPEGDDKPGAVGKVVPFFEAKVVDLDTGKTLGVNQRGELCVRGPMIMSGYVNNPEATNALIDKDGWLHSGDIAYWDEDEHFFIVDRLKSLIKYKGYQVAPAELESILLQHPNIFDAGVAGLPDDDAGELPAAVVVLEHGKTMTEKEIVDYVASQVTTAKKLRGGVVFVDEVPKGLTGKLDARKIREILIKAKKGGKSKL
# Paired box protein Pax-8, sequence (Q06710 whole entry, the tested form may be a part): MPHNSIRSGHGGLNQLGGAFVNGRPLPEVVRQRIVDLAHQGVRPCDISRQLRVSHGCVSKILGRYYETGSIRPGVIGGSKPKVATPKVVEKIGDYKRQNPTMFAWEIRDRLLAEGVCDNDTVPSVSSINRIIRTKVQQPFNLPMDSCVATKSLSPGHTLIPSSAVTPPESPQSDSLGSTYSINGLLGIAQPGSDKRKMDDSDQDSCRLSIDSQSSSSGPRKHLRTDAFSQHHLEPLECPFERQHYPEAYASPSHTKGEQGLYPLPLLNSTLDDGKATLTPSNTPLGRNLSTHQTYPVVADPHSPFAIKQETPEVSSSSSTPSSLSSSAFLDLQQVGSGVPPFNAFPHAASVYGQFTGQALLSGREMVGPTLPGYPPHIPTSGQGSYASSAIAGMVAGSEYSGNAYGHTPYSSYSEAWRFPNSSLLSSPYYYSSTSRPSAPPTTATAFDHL
compound,measurement,setting,value
COc1ccc(NC(=O)CSc2ccccn2)c([N+](=O)[O-])c1,EC50,[1],> 112 µM (not active)
same,EC50,[2],> 112 µM (not active)
O=C(NCCc1csc(-c2cccnc2)n1)c1ccc(Br)o1,IC50,[3],< 0.4 µM (not active)
CC(C)OC(=O)c1cc2c(ccn2C)n1CC(=O)N(Cc1ccccc1)c1ccccc1,EC50,[4],13.7 µM (active)
same,EC50,[5],> 120 µM (not active)
same,EC50,[6],> 120 µM (not active)
Cc1ccc(CNC(=O)CN=C(S)N(Cc2ccccc2)Cc2ccccc2F)cc1,IC50,[3],5.45 µM (not active)
CCOC(=O)c1c(NC(=O)CSc2nnnn2C)sc(C)c1-c1ccc(C)cc1,IC50,[3],5.1 µM (not active)
CCOC(=O)c1c(C)[nH]c(C)c1S(=O)(=O)NCC(=O)Nc1ccccn1,EC50,[1],> 112 µM (not active)
same,EC50,[2],> 112 µM (not active)
CCCCNCCOCCOc1ccc(F)cc1,EC50,[1],> 112 µM (not active)
same,EC50,[2],> 112 µM (not active)
COc1ccc(-n2c(C)c(C(C)=O)c(C(C)=O)c2C)cc1OC,EC50,[1],> 112 µM (not active)
same,EC50,[2],> 112 µM (not active)
O=C(NCC(=O)N(CC1CCCO1)C(C(=O)NC1CCCCC1)c1ccccc1)c1ccco1 (stereo unspecified),EC50,[7],> 150 µM (inactive)
same,EC50,[8],6.52 µM (active)
CCCC(=O)C1=C(N2CCCC2)CC(C)(C)C(C(=O)OC)C1=O (stereo unspecified),EC50,[1],> 112 µM (not active)
same,EC50,[2],> 112 µM (not active)
COc1ccc(CSc2ncnc3sccc23)cc1F,EC50,[1],> 112 µM (not active)
same,EC50,[2],> 112 µM (not active)
CCOc1ccccc1C(=O)N1c2ccccc2Sc2ccccc21,IC50,[3],4.06 µM (not active)
Cc1cc(OCC(=O)NNC(=S)NC(=O)c2cccs2)ccc1Cl,EC50,[7],74.8 µM (active)
same,EC50,[8],2.09 µM (active)
O=C(COS(=O)c1ccccc1)Nc1cc(Cl)ccc1N1CCOCC1 (stereo unspecified),EC50,[7],> 160 µM (inconclusive)
same,EC50,[8],2.82 µM (active)
Cn1c(NCc2ccco2)nc2c1c(=O)n(Cc1ccc(Cl)cc1)c(=O)n2C,EC50,[4],> 120 µM (not active)
same,EC50,[5],16.9 µM (active)
same,IC50,H9c2,> 79 µM (inactive)
same,IC50,[3],1.88 µM (not active)
COc1ccc(NC(=O)c2noc(C(C)C)c2[N+](=O)[O-])cc1,IC50,[3],9.64 µM (not active)
COc1ccccc1NC(=O)CSc1nc(O)c2c(C)cc(C)nc2n1,EC50,[1],> 112 µM (not active)
same,EC50,[2],> 112 µM (not active)
CNC(=O)COC(=O)c1c2c(nc3ccccc13)CCC2,EC50,[7],> 160 µM (inactive)
same,EC50,[8],> 38 µM (not active)
c1ccc(-c2cn(-c3ccccc3)c3ncnc(N4CCCCC4)c23)cc1,IC50,[3],5.36 µM (not active)
COc1ccc(NC(=S)N(CCCN2CCOCC2)Cc2cn(C)c3ccccc23)cc1,IC50,[3],0.737 µM (not active)
CCCC1=NN2C(=N)/C(=C\c3cc(C)n(-c4cc(C)cc(C)c4)c3C)C(=O)N=C2S1,EC50,Streptokinase A,5.85 µM (active)
same,EC50,[9],1.63 µM (active)
same,EC50,Streptococcus,18.7 µM (active)
same,EC50,[10],9.04 µM (active)
O=C(O)C1C2C=CC(O2)C1C(=O)NCCCn1ccnc1 (stereo unspecified),EC50,[1],> 112 µM (not active)
same,EC50,[2],> 112 µM (not active)
CN(C)C(=O)C(=O)c1c(-c2ccccc2)cc2ccccn12,IC50,[3],> 50 µM (not active)
O=C(Nc1ccncc1)c1ccc(Br)cc1,EC50,[7],> 150 µM (inactive)
same,EC50,[8],> 38 µM (not active)
Cc1nc2ncnn2c(Nc2ccc3c(c2)OCO3)c1Cc1ccccc1,EC50,[4],> 120 µM (not active)
same,EC50,[5],43.7 µM (active)
same,EC50,[6],> 120 µM (not active)
COc1ccc(C(=O)NNC(=S)NC(=O)c2ccc(OC)cc2)cc1,EC50,[10],5.09 µM (active)
Cc1ccc(C)c(N(C(=O)Cc2cccs2)C(C(=O)NC2CCCC2)c2ccc(C)o2)c1 (stereo unspecified),IC50,[3],7.05 µM (not active)
O=C(c1ccco1)N1CCCN(Cc2nc(-c3cccs3)no2)CC1,EC50,[1],> 112 µM (not active)
same,EC50,[2],25 µM (active)
CSc1ccc(/C=C(/NC(=O)c2ccco2)C(=O)N2CCCCC2)cc1,EC50,[1],> 112 µM (not active)
same,EC50,[2],17.5 µM (active)
N=C(NOC(=O)c1ccc2ccccc2c1)c1ccccn1,EC50,[1],0.596 µM (active)
same,EC50,[2],1.53 µM (active)
Cc1onc(-c2ccccc2)c1C(=O)NC(=S)NNC(=O)c1cccnc1,EC50,[7],> 160 µM (inactive)
same,EC50,[8],> 38 µM (not active)
CC/C(=N\CCc1c(C)[nH]c2ccc(OC(F)(F)F)cc12)C1=C(O)CC(c2ccccc2)CC1=O (stereo unspecified),EC50,[4],8.9 µM (active)
same,EC50,[5],10.7 µM (active)
same,EC50,[6],16.8 µM (active)
Cc1ccc(S(=O)(=O)Nc2ccc3c(c2)C(=O)N([C@@H](C)CO)C[C@@H](C)[C@@H](CN(C)Cc2ccc(C(F)(F)F)cc2)OCCCC[C@H](C)O3)cc1,AC50,Paired box protein Pax-8,9.16 µM (active)
C[C@H](CO)N1C[C@H](C)[C@H](CN(C)S(=O)(=O)c2ccc(F)cc2)Oc2ccc(NC(=O)Nc3cccc4ccccc34)cc2CC1=O,AC50,[11],0.483 µM (active)
same,AC50,[12],< 0.26 µM (active)
same,AC50,[13],1.27 µM (active)
CC(C)CC#Cc1ccc2c(c1)O[C@@H](CN(C)Cc1ccccn1)[C@H](C)CN([C@H](C)CO)S2(=O)=O,AC50,[11],31.9 µM (active)
same,AC50,[12],26.1 µM (active)
same,AC50,[13],26 µM (active)
C[C@@H]1CN([C@@H](C)CO)C(=O)Cc2cc(NC(=O)Nc3ccc(F)cc3)ccc2O[C@H]1CN(C)Cc1ccc(Cl)c(Cl)c1,AC50,Paired box protein Pax-8,5.72 µM (active)
O=C(N/N=C/c1sc(N2CCCCC2)nc1-c1cccs1)c1cccnc1,EC50,[7],> 160 µM (inconclusive)
same,EC50,[8],> 38 µM (not active)
